IC50 and Km data for three compounds are collected here from ChEMBL document CHEMBL1123460, “Synthesis and biochemical properties of 8-amino-6-fluoro-9-beta-D-ribofuranosyl-9H-purine” (J Med Chem, 1986).

The IC50 is the concentration that inhibits the measured activity by half. By Km is commonly meant the substrate concentration at which the rate is half of its maximum.

Data set [1] relates to L1210. Kind of data set: Compound was evaluated for the cytotoxicity against L1210 cells. The conditions noted are these: Mus musculus. In kind it is functional, cell-based.
Data set [2] is described as follows: Compound was evaluated for the apparent Km value. Type of data set: ADME.
In the next data set the test system is HEp-2. Kind of data set: Compound was evaluated for the cytotoxicity against H.Ep.-2 cells. In kind it is functional, cell-based. The conditions noted are these: Homo sapiens.
Data set [3] concerns L1210. Kind of data set: Compound was evaluated for the cytotoxicity against L1210 cells in absence of coformycin. Type of data set: functional, cell-based. The conditions noted are these: Mus musculus.
Data set [4] has as its system L1210. Kind of data set: Compound was evaluated for the cytotoxicity against L1210 cells in presence of coformycin. Type of data set: functional, cell-based. The conditions noted are these: Mus musculus.

In the case of `Nc1nc2c(F)ncnc2n1C1O[C@H](CO)[C@@H](O)[C@H]1O` (stereo partly specified), the IC50 in the data set with L1210 [1] amounted to 1.9 µM; in the data set on HEp-2 it was 1.8 µM. For the same compound, the Km in data set [2] stood at 1000 µM.
As for `Nc1ncnc2c1ncn2[C@@H]1O[C@H](CO)[C@@H](O)[C@H]1O` [ADENOSINE], the Km in data set [2] was determined as 29 µM.
In the case of `OC[C@H]1O[C@@H](n2cnc3c2N=CNC[C@H]3O)C[C@@H]1O` [PENTOSTATIN], the IC50 with L1210 [3] came to 1.9 µM; with L1210 [4] it was 0.25 µM.
